According to ChEMBL document CHEMBL3994619, “Inhibition of invasion by N-trans-feruloyloctopamine via AKT, p38MAPK and EMT related signals in hepatocellular carcinoma cells” (Bioorg Med Chem Lett, 2017):
Active and inactive are the calls of the source. The rule behind the calls is not given here.

Key:
[1] = tested on: Huh-7; assay: Antiproliferative activity against human HuH7 cells assessed as reduction in cell viability after 48 hrs by CCK8 assay; type: functional, cell-based; conditions: Huh-7, 48 h
[2] = tested on: HCCLM3; assay: Antiproliferative activity against human HCCLM3 cells assessed as reduction in cell viability after 48 hrs by CCK8 assay; type: functional, cell-based; conditions: HCCLM3, 48 h
[3] = tested on: HCCLM3; assay: Antimigratory activity in human HCCLM3 cells assessed as wound closure at 2 mM after 48 hrs by inverted microscopic method; type: functional, cell-based
[4] = tested on: Huh-7; assay: Antimigratory activity in human HuH7 cells assessed as wound closure at 2 mM after 48 hrs by inverted microscopic method; type: functional, cell-based
[5] = tested on: Huh-7; assay: Anti-invasive activity in human HuH7 cells assessed as invasive cell count at 2 mM after 48 hrs using Giemsa dye by matrigel based microscopic method (reference value: 36 +/- 6); type: functional
[6] = tested on: HCCLM3; assay: Anti-invasive activity in human HCCLM3 cells assessed as invasive cell count at 2 mM after 48 hrs using Giemsa dye by matrigel based microscopic method (reference value: 64.7 +/- 9.3); type: functional
[7] = target: Transcription factor p65 (Homo sapiens) (UniProt Q04206); assay: Effect on p65 phosphorylation in human HCCLM3 cells at 2 mM after 48 hrs by western blot analysis; type: cell-based
Chain of Transcription factor p65 (Homo sapiens) (Q04206 whole entry): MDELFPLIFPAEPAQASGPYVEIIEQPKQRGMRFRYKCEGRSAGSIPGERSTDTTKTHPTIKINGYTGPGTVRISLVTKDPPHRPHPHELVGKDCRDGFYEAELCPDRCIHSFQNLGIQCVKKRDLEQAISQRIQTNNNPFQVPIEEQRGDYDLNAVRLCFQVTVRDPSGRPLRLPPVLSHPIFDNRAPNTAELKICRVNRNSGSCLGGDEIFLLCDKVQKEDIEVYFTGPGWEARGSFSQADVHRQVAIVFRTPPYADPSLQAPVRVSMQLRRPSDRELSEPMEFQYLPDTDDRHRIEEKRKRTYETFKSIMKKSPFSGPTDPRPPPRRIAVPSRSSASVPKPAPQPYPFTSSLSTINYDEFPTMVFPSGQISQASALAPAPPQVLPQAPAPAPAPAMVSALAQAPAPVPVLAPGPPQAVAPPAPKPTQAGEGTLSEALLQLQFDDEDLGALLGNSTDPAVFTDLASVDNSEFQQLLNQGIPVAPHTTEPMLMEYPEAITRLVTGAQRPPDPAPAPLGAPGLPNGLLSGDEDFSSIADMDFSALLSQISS

[8] = target: Mitogen-activated protein kinase; ERK1/ERK2 (Homo sapiens) (UniProt P27361+P28482); assay: Effect on ERK1/2 phosphorylation in human HCCLM3 cells at 2 mM after 48 hrs by western blot analysis; type: cell-based
Chain of Mitogen-activated protein kinase; ERK1/ERK2 (Homo sapiens) (P27361 whole entry, looked up): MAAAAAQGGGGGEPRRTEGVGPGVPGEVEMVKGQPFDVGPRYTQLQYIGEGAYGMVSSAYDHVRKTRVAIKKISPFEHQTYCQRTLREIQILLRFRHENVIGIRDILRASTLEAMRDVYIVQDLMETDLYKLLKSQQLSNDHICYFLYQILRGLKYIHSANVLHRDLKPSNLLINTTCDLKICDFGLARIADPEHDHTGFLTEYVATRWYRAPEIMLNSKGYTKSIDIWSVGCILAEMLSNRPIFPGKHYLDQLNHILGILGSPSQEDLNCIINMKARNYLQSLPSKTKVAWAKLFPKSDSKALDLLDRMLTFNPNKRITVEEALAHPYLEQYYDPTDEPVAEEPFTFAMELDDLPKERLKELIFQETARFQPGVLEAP
Chain of Mitogen-activated protein kinase; ERK1/ERK2 (Homo sapiens) (P28482 whole entry, looked up): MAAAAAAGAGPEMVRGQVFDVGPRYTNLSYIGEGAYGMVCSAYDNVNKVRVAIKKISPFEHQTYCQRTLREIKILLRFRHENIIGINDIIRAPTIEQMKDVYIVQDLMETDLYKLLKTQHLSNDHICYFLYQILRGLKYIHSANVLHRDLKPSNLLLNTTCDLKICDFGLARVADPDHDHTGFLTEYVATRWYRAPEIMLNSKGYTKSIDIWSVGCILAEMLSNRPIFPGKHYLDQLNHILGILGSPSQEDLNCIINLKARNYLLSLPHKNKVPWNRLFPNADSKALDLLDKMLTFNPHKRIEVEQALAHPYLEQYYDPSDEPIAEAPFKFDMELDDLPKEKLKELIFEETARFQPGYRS

[9] = organism: Homo sapiens; assay: Reduction in Akt phosphorylation in human HuH7 cells at 2 mM after 48 hrs by western blot analysis; type: cell-based
[10] = organism: Homo sapiens; assay: Reduction in Akt phosphorylation in human HCCLM3 cells at 2 mM after 48 hrs by western blot analysis; type: cell-based
[11] = target: T1, MAP kinase p38 (Homo sapiens) (UniProt O15264+Q15759+Q16539+P53778); assay: Reduction in p38 phosphorylation in human HuH7 cells at 2 mM after 48 hrs by western blot analysis; type: cell-based
[12] = target: T1, MAP kinase p38 (Homo sapiens); assay: Reduction in p38 phosphorylation in human HCCLM3 cells at 2 mM after 48 hrs by western blot analysis; type: cell-based
[13] = tested on: HCCLM3; assay: Upregulation of E-cadherin in human HCCLM3 cells after 48 hrs by western blot analysis; type: functional, cell-based
[14] = tested on: HCCLM3; assay: Downregulation of slug in human HCCLM3 cells at 2 mM after 48 hrs by western blot analysis; type: functional, cell-based
[15] = tested on: HCCLM3; assay: Cytotoxicity against human HCCLM3 cells after 48 hrs by CCK8 assay; type: cell-based; conditions: hcclm3, 48 h

Which IC50 [1] does the source give for O=c1[nH]cc(F)c(=O)[nH]1 [FLUOROURACIL] here?
Its IC50 is 2980 µM.

And the IC50 [2]?
The IC50 was 1840 µM.

COc1cc(/C=C/C(=O)NCC(O)c2ccc(O)cc2)ccc1O (configuration not stated) was tested. Which IC50 [1] did it give?
Its IC50 is 1990 µM.

And the IC50 [2]?
Its IC50 is 2270 µM.

And the Activity [3]?
The Activity was “inactive”.

What about the Activity [4] of the same molecule?
Its Activity is “inactive”.

And the Activity [5]?
Its Activity is 11.7.

What about the Activity [6] of the same molecule?
Its Activity is 23.3.

And the Activity [7]?
Its Activity is “inactive”.

What about the Activity [8] of the same molecule?
The Activity was “inactive”.

What about the Activity [9] of the same molecule?
Its Activity is “Active”.

What about the Activity [10] of the same molecule?
Its Activity is “Active”.

And the Activity [11]?
Its Activity is “Active”.

And the Activity [12]?
Its Activity is “Active”.

What about the Activity [13] of the same molecule?
Its Activity is “Active”.

What about the Activity [14] of the same molecule?
Its Activity is “Active”.

And the Activity [15]?
Its Activity is “Non-Toxic”.
